Laboratory results from patent publication US8685953B2, “Linear and cyclic guanidine derivatives, method of preparation and uses thereof” (Universita Degli Studi Di Siena, priority 2008, dated 2014).
Values after ≈ are worked out from the molar mass of the structure shown.

Assays:
Assay in all cases: MIC determination by AFST-EUCAST standard methodology
[1] = test system: C. albicans 15T; assay type: cell-based, Candida albicans; details: 24 h, visually and spectrophotometrically, read-out: Antifungal activity, expressed as MIC50
Procedure: (§1) Determination of MICs by AFST-EUCAST Standard Methodology
(§2) Assay medium. The assay medium was RPMI […] without NaHCO3 and with L-glutamine (Sigma Aldrich, Italy), buffered at pH 7.0 with 0.165 M morpholinepropanesulphonic acid (Sigma Aldrich, Italy) and supplemented with 2% (w/v) glucose. The medium, prepared as double-strength solution, was sterilized by filtration and diluted 1:2 (v/v) with the fungal inoculum prepared in sterile distilled water.
(§3) The yeast isolates were grown on Sabouraud dextrose agar (Oxoid, Madrid, Spain) for 48 h at 37° C. before testing. Suspensions were prepared by combining five distinct colonies of each culture of >1 mm diameter. A spectrophotometric procedure for inoculum preparation was used. The final inoculum suspension, prepared in sterile distilled water, contained between 0.5·10^5 and 2.5·10^5 cfu/mL.
(§4) Stock solutions of test compounds were prepared in 100% dimethyl sulfoxide. Stock solutions were prepared as 100× concentration relative to the highest concentration in the antifungal activity test, and frozen at −70° C. until used.
(§5) Sterile plastic micro titration plates containing flat-bottomed wells were used. The plates contained serial dilution of the antifungal agents with a volume of assay medium of 100 μL/well. Two drug-free medium wells were used as sterility and growth controls. The trays were inoculated with 100 μL/well of the final inoculum, with the exception of sterility control wells. The range of concentrations tested for each drug was 1.25-80 μM. The microtitration plates were incubated at 37° C. for 24 h. The minimal inhibitory concentrations (MICs) were determined at 24 h both visually and spectrophotometrically.
(§6) By visual endpoint determination, MICs were determined according to a S-1-R scale, with S (susceptible) indicating an optical clear culture, I (intermediate susceptibility) indicating a slightly hazy culture, and R (resistant) indicating no reduction in turbidity. The MIC50 was defined as the lowest concentration of a drug which correspond to a S culture.
(§7) Microtitration plates were stirred using a microtitration plate shaker before reading to ensure uniform turbidity. MICs were obtained by measuring the absorbance at 450 nm with a microtitration plate reader. The value of the blank was subtracted from reading of the rest of the wells. Two endpoints were defined for each antifungal agent tested, with MIC80 indicating the lowest drug concentration resulting in a reduction of growth of 80% or more (determined spectrophotometrically) compared with the growth of the control, and MIC50 indicating the lowest drug concentration resulting in a reduction in growth of 50% (determined spectrophotometrically) compared with the growth of the control. The MIC50 was also defined as the spectrophotometric endpoint.

[2] = test system: C. albicans 4T; assay type: cell-based, Candida albicans; details: 24 h, visually and spectrophotometrically, read-out: Antifungal activity, expressed as MIC50
Procedure: as §1, §2, §3, §4, §5, §6, §7

[3] = test system: C. albicans 53T; assay type: cell-based, Candida albicans; details: 24 h, visually and spectrophotometrically, read-out: Antifungal activity, expressed as MIC50
Procedure: as §1, §2, §3, §4, §5, §6, §7

[4] = test system: C. albicans ATCC 60193; assay type: cell-based, Candida albicans; details: 24 h, visually and spectrophotometrically, read-out: Antifungal activity, expressed as MIC50
Procedure: as §1, §2, §3, §4, §5, §6, §7

[5] = test system: C. glabrata 70E; assay type: cell-based; details: C. glabrata 70E; 24 h, visually and spectrophotometrically; read-out: Antifungal activity, expressed as MIC50
Procedure: as §1, §2, §3, §4, §5, §6, §7

[6] = test system: C. krusei 193T; assay type: cell-based; details: 24 h, visually and spectrophotometrically, read-out: Antifungal activity, expressed as MIC50
Procedure: as §1, §2, §3, §4, §5, §6, §7

[7] = test system: C. krusei ATCC 14243; assay type: cell-based; details: 24 h, visually and spectrophotometrically, read-out: Antifungal activity, expressed as MIC50
Procedure: as §1, §2, §3, §4, §5, §6, §7

[8] = test system: C. parapsilosis 64E; assay type: cell-based; details: 24 h, visually and spectrophotometrically, read-out: Antifungal activity, expressed as MIC50
Procedure: as §1, §2, §3, §4, §5, §6, §7

[9] = test system: C. parapsilosis 81E; assay type: cell-based; details: 24 h, visually and spectrophotometrically, read-out: Antifungal activity, expressed as MIC50
Procedure: as §1, §2, §3, §4, §5, §6, §7

[10] = test system: C. parapsilosis ATCC 34136; assay type: cell-based; details: 24 h, visually and spectrophotometrically, read-out: Antifungal activity, expressed as MIC50
Procedure: as §1, §2, §3, §4, §5, §6, §7

[11] = test system: C. tropicalis 86E; assay type: cell-based; details: 24 h, visually and spectrophotometrically, read-out: Antifungal activity, expressed as MIC50
Procedure: as §1, §2, §3, §4, §5, §6, §7

Row | MIC50 [1] | MIC50 [2] | MIC50 [3] | MIC50 [4] | MIC50 [5] | MIC50 [6] | MIC50 [7] | MIC50 [8] | MIC50 [9] | MIC50 [10] | MIC50 [11] | SMILES
1 | 5 µM (≈ 2.36 µg/mL) | 2.5 µM (≈ 1.18 µg/mL) | 2.5 µM (≈ 1.18 µg/mL) | 2.5 µM (≈ 1.18 µg/mL) | 40 µM (≈ 18.9 µg/mL) | 10 µM (≈ 4.72 µg/mL) | 20 µM (≈ 9.43 µg/mL) | 20 µM (≈ 9.43 µg/mL) | 20 µM (≈ 9.43 µg/mL) | 80 µM (≈ 37.7 µg/mL) | 2.5 µM (≈ 1.18 µg/mL) | N=C(NCCCCCCCCN1CCCCCCCCNC(=N)NC1=O)NCc1ccccc1 [Compound 13a]
2 | 2.5 µM (≈ 1.05 µg/mL) | 80 µM (≈ 33.6 µg/mL) | 5 µM (≈ 2.1 µg/mL) | 2.5 µM (≈ 1.05 µg/mL) | 80 µM (≈ 33.6 µg/mL) | 40 µM (≈ 16.8 µg/mL) | 80 µM (≈ 33.6 µg/mL) | 40 µM (≈ 16.8 µg/mL) | 80 µM (≈ 33.6 µg/mL) | 40 µM (≈ 16.8 µg/mL) | 5 µM (≈ 2.1 µg/mL) | C#CCNC(=N)NCCCCCCCCN1CCCCCCCCNC(=N)NC1=O [Compound 13b]
3 | 1.25 µM (≈ 0.545 µg/mL) | 1.25 µM (≈ 0.545 µg/mL) | 2.5 µM (≈ 1.09 µg/mL) | 2.5 µM (≈ 1.09 µg/mL) | 20 µM (≈ 8.71 µg/mL) | 5 µM (≈ 2.18 µg/mL) | 5 µM (≈ 2.18 µg/mL) | 5 µM (≈ 2.18 µg/mL) | 5 µM (≈ 2.18 µg/mL) | 5 µM (≈ 2.18 µg/mL) | 1.25 µM (≈ 0.545 µg/mL) | CC=CCNC(=N)NCCCCCCCCN1CCCCCCCCNC(=N)NC1=O [Compound 13d]
4 | 20 µM (≈ 8.71 µg/mL) | 40 µM (≈ 17.4 µg/mL) | 40 µM (≈ 17.4 µg/mL) | 20 µM (≈ 8.71 µg/mL) | 80 µM (≈ 34.9 µg/mL) | 80 µM (≈ 34.9 µg/mL) | 40 µM (≈ 17.4 µg/mL) | >80 µM | >80 µM | >80 µM | 40 µM (≈ 17.4 µg/mL) | C=C(C)CNC(=N)NCCCCCCCCN1CCCCCCCCNC(=N)NC1=O [Compound 13e]

More lines, now with the values behind:

Row | SMILES | MIC50 [1] | MIC50 [2] | MIC50 [3] | MIC50 [4] | MIC50 [5] | MIC50 [6] | MIC50 [7] | MIC50 [8] | MIC50 [9] | MIC50 [10] | MIC50 [11]
5 | N=C(N)NCCCCCCCCNCCCCCCCCNC(=N)NCC1CC1 [Compound 12c] | 20 µM (≈ 8.19 µg/mL) | 10 µM (≈ 4.1 µg/mL) | 10 µM (≈ 4.1 µg/mL) | 20 µM (≈ 8.19 µg/mL) | 20 µM (≈ 8.19 µg/mL) | 10 µM (≈ 4.1 µg/mL) | 5 µM (≈ 2.05 µg/mL) | 5 µM (≈ 2.05 µg/mL) | 20 µM (≈ 8.19 µg/mL) | 80 µM (≈ 32.8 µg/mL) | 5 µM (≈ 2.05 µg/mL)
6 | CC(C)=CCNC(=N)NCCCCCCCCNCCCCCCCCNC(=N)N [Compound 12f] | 40 µM (≈ 16.9 µg/mL) | 80 µM (≈ 33.9 µg/mL) | 80 µM (≈ 33.9 µg/mL) | 80 µM (≈ 33.9 µg/mL) | 80 µM (≈ 33.9 µg/mL) | 20 µM (≈ 8.47 µg/mL) | 40 µM (≈ 16.9 µg/mL) | >80 µM | 40 µM (≈ 16.9 µg/mL) | >80 µM | 20 µM (≈ 8.47 µg/mL)
